Measurements taken from patent publication US11306095B2 (EAST CHINA UNIVERSITY OF SCIENCE AND TECHNOLOGY, priority 2015, dated 2022).
Converted amounts (≈) assume the structure as drawn.

How the values were obtained:
[1] = test system: H1975 cells (EGFR L858R/T790M); assay: Inhibitory activity on cell proliferation, H1975; type: cell-based; conditions: Homo sapiens, NCI-H1975; H1975, 72 hours; read-out: Inhibitory activity on proliferation of cells (IC50, μM) H1975
[2] = test system: A431 cells (EGFR wild type); assay: Inhibitory activity on cell proliferation, A431; type: cell-based; conditions: Homo sapiens, A-431; A431, 72 hours; read-out: Inhibitory activity on proliferation of cells (IC50, μM) A431
H1975 cell xenograft = H1975 cell xenograft tumor assay; type: in vivo, BALB/c nude mice; conditions: for tumor recurrence after administration was stopped for 1 month (FIG. 2): H1975 xenograft
Method: Purpose of experiment: H1975 transplanted BALB/c nude mice were orally administered (PO) with a substance to be tested for 14 consecutive days. The body weight and tumor size of nude mice were observed and recorded.
H1975 cells were obtained from Shanghai Institute of Materia Medica. […] Cells were fluid-changed and passaged for one time every 2-3 days and expanded. When the desired amount of cells was achieved, transplantation of cells was performed.
(§1) 40 male BALB/c nude mice, aged 4-5 weeks and weighing 17-23 g, were purchased from Shanghai Bikai, placed in an animal room environment for 2-3 days, and then seeded with cells. Cell suspension was subcutaneously injected at forelimb of the nude mouse rich in capillaries, and each mouse was injected with 0.1 mL of cell suspension.
Appropriate amount of a substance to be tested was weighed, suspended in 14 mL of DMSO-PEG400 saline solution (DMSO:PEG400:saline=1:30:69) respectively, formulated according to the following table, suspended or dissolved by ultrasonic wave, filled into vials and sealed, and reserved in a 4° C. refrigerator for further use.
(§2) The length and width of a tumor and body weight of a mouse were recorded at least twice a week. The tumor size is calculated as V=0.5*length*width*width.

[3] = test system: A431 cell xenograft (EGFR wild-type); assay: A431 cell xenograft tumor assay; type: in vivo, BALB/c nude mice; conditions: 25 mg/kg, oral, 14 days
Method: Purpose of experiment: A431 xenograft tumor BALB/c nude mice were orally administered (PO) with a substance to be tested for 14 consecutive days. The body weight and tumor size of nude mice were observed and recorded.
Cells were fluid-changed and passaged for one time every 2-3 days and expanded. When the desired amount of cells was achieved, transplantation of cells was performed.
as §1
Appropriate amount of a substance to be tested was weighed, suspended in 14 mL of DMSO-PEG400 saline solution (DMSO:PEG400:saline=1:30:69) respectively, formulated according to the following table, suspended or dissolved by ultrasonic wave, filled into vials and sealed and reserved in a 4° C. refrigerator for further use.
as §2

[4] = Pathological analysis of tumor-bearing mice after 14 consecutive days of administration; type: in vivo
Wild type EGFR = molecular target: T1, Wild type EGFR (Homo sapiens, UniProt P00533); assay: Kinase activity test (FRET), wild type EGFR; type: biochemical; conditions: wild type EGFR; read-out: Inhibitory activity of EGFR on kinase (IC50, nM) WT
T1 construct: purchased Invitrogen PV3872
Procedure, shortened: (§3)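 FRET assay with coumarin/fluorescein-labelled poly(Glu, Tyr)4:1 peptide and ATP, compounds at 5.1×10^−11 to 1.0×10^−6 mol/L final. Kinase reaction 1.5 h at room temperature, then 1 h development cleaving unphosphorylated peptide.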

EGFR-L858R/T790M = molecular target: T2, EGFR-L858R/T790M (Homo sapiens, UniProt P00533, L858R/T790M); assay: Kinase activity test (FRET), EGFR T790M/L858R; type: biochemical; conditions: EGFR T790M/L858R; read-out: Inhibitory activity of EGFR on kinase (IC50, nM) T790M/L858R
T2 construct: purchased Invitrogen PV4879
Procedure, shortened: as §3

[5] = Determination of solubility in water (PBS 20 mM, pH 6.8); type: physicochemical; conditions: PBS buffer, aqueous buffer, thermodynamic from solid; pH 6.8, 20 mM PBS; read-out: Solubility (pH 6.8, g/mL)
Procedure, shortened: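 Compound suspension filtered (0.22 μm PVDF), diluted in 50% methanol/50% PBS, absorbance read by UV spectrophotometry. Solubility calculated from a standard curve of 0.01–0.05 mg/mL methanol-derived solutions (r > 0.998).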

T2 sequence (P00533 25-1210 T790M/L858R): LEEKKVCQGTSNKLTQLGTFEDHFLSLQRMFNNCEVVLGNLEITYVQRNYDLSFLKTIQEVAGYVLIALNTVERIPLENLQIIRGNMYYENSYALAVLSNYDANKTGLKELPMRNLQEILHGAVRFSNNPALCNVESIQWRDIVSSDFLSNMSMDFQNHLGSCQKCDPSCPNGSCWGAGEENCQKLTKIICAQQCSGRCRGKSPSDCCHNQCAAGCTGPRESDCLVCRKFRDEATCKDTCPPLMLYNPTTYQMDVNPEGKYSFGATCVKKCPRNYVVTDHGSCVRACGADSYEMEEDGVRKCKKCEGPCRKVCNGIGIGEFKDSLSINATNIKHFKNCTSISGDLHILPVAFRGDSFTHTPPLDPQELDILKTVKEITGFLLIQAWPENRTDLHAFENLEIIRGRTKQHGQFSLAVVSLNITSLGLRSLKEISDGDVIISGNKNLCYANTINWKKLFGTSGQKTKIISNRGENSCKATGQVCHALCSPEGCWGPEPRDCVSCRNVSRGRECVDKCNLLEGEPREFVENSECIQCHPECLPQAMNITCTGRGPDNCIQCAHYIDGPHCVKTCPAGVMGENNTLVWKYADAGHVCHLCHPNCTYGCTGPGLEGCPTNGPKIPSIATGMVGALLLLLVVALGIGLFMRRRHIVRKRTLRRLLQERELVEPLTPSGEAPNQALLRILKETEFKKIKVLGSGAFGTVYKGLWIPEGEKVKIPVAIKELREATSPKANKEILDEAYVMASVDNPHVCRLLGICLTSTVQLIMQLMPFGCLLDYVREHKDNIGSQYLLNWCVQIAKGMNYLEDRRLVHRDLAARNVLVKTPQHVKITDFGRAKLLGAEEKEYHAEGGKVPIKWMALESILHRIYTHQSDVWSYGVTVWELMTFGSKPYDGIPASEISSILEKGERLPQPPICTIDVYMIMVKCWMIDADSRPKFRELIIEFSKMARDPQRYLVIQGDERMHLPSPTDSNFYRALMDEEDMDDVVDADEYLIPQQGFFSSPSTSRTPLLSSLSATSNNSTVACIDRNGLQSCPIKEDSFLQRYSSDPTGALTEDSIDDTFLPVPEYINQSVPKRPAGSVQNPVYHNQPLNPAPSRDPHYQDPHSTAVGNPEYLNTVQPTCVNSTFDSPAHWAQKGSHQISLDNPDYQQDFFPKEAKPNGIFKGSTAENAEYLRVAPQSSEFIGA
T1 sequence (P00533 25-1210): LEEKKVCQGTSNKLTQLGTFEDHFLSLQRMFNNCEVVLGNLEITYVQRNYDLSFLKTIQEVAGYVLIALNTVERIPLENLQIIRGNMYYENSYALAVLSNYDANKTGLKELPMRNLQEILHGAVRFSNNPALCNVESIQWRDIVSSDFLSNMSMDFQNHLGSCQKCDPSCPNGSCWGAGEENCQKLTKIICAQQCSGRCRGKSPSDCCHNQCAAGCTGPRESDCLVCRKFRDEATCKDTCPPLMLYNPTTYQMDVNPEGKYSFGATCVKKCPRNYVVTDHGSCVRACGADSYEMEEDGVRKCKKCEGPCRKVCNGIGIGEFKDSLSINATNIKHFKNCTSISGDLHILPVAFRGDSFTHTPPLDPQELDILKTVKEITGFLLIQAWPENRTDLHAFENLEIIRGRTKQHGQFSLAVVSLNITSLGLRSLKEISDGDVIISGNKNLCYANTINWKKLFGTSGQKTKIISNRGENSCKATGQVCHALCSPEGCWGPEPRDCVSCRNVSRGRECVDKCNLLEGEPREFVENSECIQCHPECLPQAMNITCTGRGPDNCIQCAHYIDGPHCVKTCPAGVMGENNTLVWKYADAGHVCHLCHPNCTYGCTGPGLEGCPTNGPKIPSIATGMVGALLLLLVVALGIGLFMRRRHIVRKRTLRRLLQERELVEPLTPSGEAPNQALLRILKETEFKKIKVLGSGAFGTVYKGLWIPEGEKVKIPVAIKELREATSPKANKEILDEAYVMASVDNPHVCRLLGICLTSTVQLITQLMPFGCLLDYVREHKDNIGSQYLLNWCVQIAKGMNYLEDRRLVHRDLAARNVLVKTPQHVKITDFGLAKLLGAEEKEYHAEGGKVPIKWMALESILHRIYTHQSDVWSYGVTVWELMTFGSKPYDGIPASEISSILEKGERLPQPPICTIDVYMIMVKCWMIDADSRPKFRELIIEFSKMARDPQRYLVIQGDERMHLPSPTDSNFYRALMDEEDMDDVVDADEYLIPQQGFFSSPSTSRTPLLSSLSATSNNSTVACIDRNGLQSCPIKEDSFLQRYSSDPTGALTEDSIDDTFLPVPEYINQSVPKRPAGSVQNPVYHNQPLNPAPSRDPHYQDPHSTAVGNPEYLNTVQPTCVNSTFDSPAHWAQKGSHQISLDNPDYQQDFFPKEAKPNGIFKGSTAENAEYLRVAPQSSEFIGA

SMILES	IC50 [1]	IC50 [2]	effect on tumor size in H1975 xenograft (FIG. 2) (H1975 cell xenograft; 25 mg/kg)	tumor recurrence after administration was stopped for 1 month (FIG. 2) (H1975 cell xenograft; 25 mg/kg)	tumor size in EGFR wild-type A431 cell xenograft model (FIG. 3) [3]	pathology, brain tissue (FIG. 5E) [4]	pathology, heart tissue (FIG. 5G) [4]	pathology, intestine tissue (FIG. 5A) [4]	pathology, kidney tissue (FIG. 5F) [4]	pathology, liver tissue (FIG. 5C) [4]	pathology, lung tissue (FIG. 5B) [4]	pathology, tumor tissue (FIG. 5D) [4]	IC50 (Wild type EGFR)	IC50 (EGFR-L858R/T790M)	solubility [5]	efficacy in H1975 xenograft (FIG. 2), 25 mg/kg versus AZD9291 25 mg/kg (H1975 cell xenograft; 25 mg/kg)	efficacy in H1975 xenograft (FIG. 2), 10 mg/kg versus CO-1686 50 mg/kg (H1975 cell xenograft; Compound 14 10 mg/kg, CO-1686 50 mg/kg)	efficacy in H1975 cell xenograft model (FIG. 1) (H1975 cell xenograft; orally administered for 14 days, versus CO-1686)	selectivity on wild-type EGFR in A431 xenograft (FIG. 3) ([3]; versus afatinib)
C=CC(=O)Nc1cc(Nc2nccc(-c3cn(C)c4ccccc34)n2)c(OC)cc1N(C)CCN(C)C [AZD9291, reference compound]	[…]	[…]	effectively reduce the size of a tumor	[…]	the size of the tumor did not substantially change	normal tissue structure, no pathological change	1) moderate expansion of myocardial fiber gap in the tissue, as indicated by the black arrow, 2) vacuoles formed in the cytoplasm of the myocardial fibers	inflammatory cell focal infiltration seen in tissue	1) extensive kidney tubular lumen expansion in tissue, as shown by the black arrow, 2) part of glomerular wall thickening, as shown by the yellow arrow, and 3) visible transparent tube	1) more severe liver injury, extensive hepatic sinusoids dilatation, as indicated by the black arrow, and 2) visible necrosis in liver tissue	pulmonary congestion, interstitial edema	moderate necrosis of cells in the entire tissues	–	–	–	–	–	–	–
C=CC(=O)Nc1cccc(-n2c(=O)c(-c3ccccc3)nc3cnc(Nc4ccc(N5CCN(C)CC5)cc4OC)nc32)c1 [Compound 14, N-(3-(2-((2-methoxy-4-(4-methyl-1-piperazinyl)phenyl)amino)-7-oxo-6-phenyl-8(7H)-pteridinyl)phenyl)acrylamide]	0.014 µM	4.18 µM	effectively reduce the size of a tumor	the tumor did not recur	the size of the tumor did not substantially change	normal tissue structure, no pathological change	moderate expansion of myocardial fiber gap in the tissue	mucosal inflammatory cell focal infiltration	1) a part of glomerular wall in the tissue thickening, as shown by the black arrow, and 2) no significant abnormality	1) the extensive hepatic sinusoids dilatation in the entire tissue, as indicated by the black arrow, and 2) visible mild fatty degeneration in liver tissue, with small droplets of lipid	normal tissue structure, no pathological change	moderate necrosis of cells in the entire tissues	10.5 nM	1 nM	9.7 µg/mL (≈ 16.5 µM)	comparable efficacy to AZD9291	better efficacy over CO-1686	superior efficacy over CO-1686	significantly better than afatinib
